{"source": "patent US8703799B2", "about": "“Non-competitive NMDA receptor antagonists” (priority 2006, dated 2014)", "key": {"mice": {"tested_on": "mice", "assay": "Acute toxicity (rotorod minimal motor impairment, overt signs, death) in mice", "format": "in vivo", "design": "key: (+++) means some animals died at 100 mg/kg and all animals died at 300 mg/kg; (++) means that some toxicity observed at 100 mg/kg and all animals died at 300 mg/kg; (−) means no toxicity observed at 100 mg/kg and some observed at 300 mg/kg but no animals died at 300 mg/kg", "details": "i.p., 100 and 300 mg/kg", "protocol": "Acute toxicity was assessed by monitoring animals for overt signs of impaired neurological or muscular function. The rotorod test measures minimal motor impairment (MMI) by placing mice on a rod rotated a 6 rpm. A compound is considered toxic if the mice fall off the rod three times during a 1-min period. Additionally, mice were observed and noted for circular or zigzag gaits, abnormal body posture and spread of the legs, tremors, hyperactivity, lack of exploratory behavior, somnolence, stupor, catalepsy, loss of placing response and change in muscle tone.\n(§1) For activity, (+) means MES test protection occurred at 100 mg/kg delivered i.p. in mice and (−) means that no activity was observed. For toxicity, (+++) means some animals died at 100 mg/kg and all animals died at 300 mg/kg; (++) means that some toxicity observed at 100 mg/kg and all animals died at 300 mg/kg; and (−) means no toxicity observed at 100 mg/kg and some observed at 300 mg/kg but no animals died at 300 mg/kg."}, "MES-induced seizures": {"tested_on": "MES-induced seizures", "assay": "Maximal electroshock (MES) test for anti-convulsive activity in mice", "format": "in vivo", "design": "key: (+) means MES test protection occurred at 100 mg/kg delivered i.p. in mice; (−) means that no activity was observed", "details": "i.p., 100 mg/kg", "protocol": "The maximal electroshock (MES) test was used to initially screen compounds for anti-convulsive activity in mice.\nIn the MES test, 50 mA of […] alternating current was delivered to 19-25 g mice for 2 s by a corneal electrode which had been primed with an electrolyte solution containing an anesthetic agent (0.5% tetracaine HCl). Mice were tested at various intervals following doses of 30, 100 or 300 mg/kg of test compound given by i.p. injection in 0.01 ml/g of the aqueous carrier. Animals are considered protected from MES-induced seizures upon abolition of hindlimb tonic extensor component of the seizure (Swinyard et al. 1989; White et al. 1995a; White et al. 1995b).\nas §1"}, "log P determination": {"assay": "log P determination", "format": "physicochemical", "details": "measure of lipophilicity"}, "[1]": {"tested_on": "NMDA receptors (competitive site, CGP 39653)", "assay": "NMDA agonist binding site assay ([3H]CGP 39653)", "details": "rat forebrain membrane, 50 mM TRIS-acetate pH 7.4, 0-4° C., 60 min; FIG. 4", "protocol": "NMDA receptors were isolated from rat forebrain membrane (Bmax=0.77 pmol/mg tissue) and incubated with ^3H-labeled CGP 39653 (15-30 Ci/mmol) in 50 mM TRIS-acetate (pH 7.4) buffer at 0-4° C. for 60 min to yield labeled receptors. CGP 39653 is a known competitive antagonist of NMDA receptor.\nSelected concentrations of non-labeled bicyclo,4-F-PCP were incubated with the labeled receptors in 50 mM TRIS-Acetate (pH 7.4) buffer at 0-4° C. for 60 min. At the conclusion of the assay, the reaction mixture was immediately filtered using glass filters and vacuum filtration, washing twice with buffer solutions. The radioactivity trapped on the filters was measured, compared with controls, and the ki and IC50 values of bicyclo,4-F-PCP calculated."}, "[2]": {"tested_on": "electrically-induced convulsions", "assay": "Anti-convulsive ED50 in rats, oral (electrically-induced convulsions)", "format": "in vivo", "details": "delivered orally, amelioration of electrically-induced convulsions", "protocol": "Suitable dosages for the compounds and methods disclosed herein range from about 0.05, 0.1, 0.2 or 0.5 mg/kg body weight to about 100 or 200 mg/kg body weight. In certain embodiments, dosages range from about 0.5 to 1 mg/kg body weight to about 100 mg/kg body weight. In other embodiments doses range from about 10 to about 50 mg/kg body weight. Performance of studies to determine an optimal dosage for a particular condition using a particular compound is well within the level of ordinary skill in this field. […] For example, the ED50 of bicyclo,4-F-PCP for alleviation, treatment, or prevention of Alzheimer's and Parkinson's disease would be expected to be on the order of 3 mg/kg.\nCompound 4 (Bicyclo,4-F-PCP) was tested in rats using 30 mg/kg delivered orally."}, "pKa determination": {"assay": "pKa determination", "format": "physicochemical"}, "[3]": {"assay": "Aqueous solubility of fumarate salt", "format": "physicochemical", "details": "read-out: solubility in aqueous solution"}, "[4]": {"tested_on": "NMDA receptors (MK-801 binding site)", "assay": "MK-801 (dizocilpine) binding site assay", "details": "rat forebrain membrane, 20 mM HEPES pH 7.5, 25° C., 90 min; FIG. 3", "protocol": "NMDA receptors were isolated from rat forebrain membrane (Bmax=830 fmol/mg protein) and incubated with ^3H-labeled MK-801 maleate (15-30 Ci/mmol) in 20 mM HEPES (pH 7.5) buffer at 25° C. for 90 min to yield labeled receptors. MK-801 is a known non-competitive antagonist of NMDA receptor.\nSelected concentrations of non-labeled bicyclo,4-F-PCP were incubated with the labeled receptors in 20 mM HEPES (pH 7.5) buffer at 25° C. for 90 min. At the conclusion of the assay, the reaction mixture was filtered immediately on glass filters by vacuum filtration and washed twice with buffer solutions. The radioactivity trapped on the filters was measured, compared with controls, and the ki and IC50 values of bicyclo,4-F-PCP were calculated."}}, "note": "Values joined by “and” are separate entries in the source; they are usually repeats but may differ in a detail not shown here. Identical values can stand only once."}
{"smiles": "Fc1ccc(C2(N3CCCCC3)CCCCCC2)cc1", "note": "[cycloheptyl 4-F piperidine]", "values": [{"measurement": "Toxicity", "setting": "mice", "result": "+++"}, {"measurement": "Activity (MES test protection)", "setting": "MES-induced seizures", "result": "+"}]}
{"smiles": "NC1(c2ccccc2F)CCCCCC1", "note": "[cycloheptyl 2-F amine]", "values": [{"measurement": "Toxicity", "setting": "mice", "result": "++"}, {"measurement": "Activity (MES test protection)", "setting": "MES-induced seizures", "result": "+"}]}
{"smiles": "NC1(c2ccc(F)cc2)CC2CCC1C2", "note": "(racemic) [Compound 2, (±)-2-(4-fluorophenyl)-bicyclo[2.2.1]hept-2-ylamine]", "values": [{"measurement": "Toxicity", "setting": "mice", "result": "++"}, {"measurement": "Activity (MES test protection)", "setting": "MES-induced seizures", "result": "+"}]}
{"smiles": "Fc1ccc(C2(N3CCCCC3)CC3CCC2C3)cc1", "note": "(racemic) [Compound 4, (±) 1-[2-(4-fluorophenyl)-bicyclo[2.2.1]hept-2-yl]-piperidine]", "values": [{"measurement": "logP", "setting": "log P determination", "result": 2.07}, {"measurement": "displacement of CGP 39653 from NMDA receptors", "setting": "[1]", "result": "does not displace"}, {"measurement": "Toxicity", "setting": "mice", "result": "−"}, {"measurement": "ED50", "setting": "[2]; Rattus norvegicus, po, read-out: ED50 (effective dose)", "result": 28.3, "unit": "mg/kg"}, {"measurement": "ED50 (effective dose)", "setting": "[2]; listed as bicyclo,4-F-PCP", "result": 28, "unit": "mg/kg"}, {"measurement": "pKa", "setting": "pKa determination", "result": 8.87}, {"measurement": "solubility", "setting": "[3]", "result": "36600 µM and 14200 µg/mL"}, {"measurement": "displacement of [3H] MK-801 maleate bound to NMDA receptors", "setting": "[4]", "result": "can displace"}, {"measurement": "Activity (MES test protection)", "setting": "MES-induced seizures", "result": "+"}]}
